Values joined by “and” are separate entries in the source; they are usually repeats but may differ in a detail not shown here. Identical values can stand only once. Inconclusive results and toxic doses are left out. Rule for the calls: active = survival T/C of 150% or more; inactive = T/C below 125% in these data.
System: CD2F1 mice, L1210 leukemia sc, survival T/C
Experiment: NCI In Vivo Anticancer Drug Screen. Data for tumor model L1210 Leukemia (subcutaneous) in CD2F1 (CDF1) mice
Conditions: endpoint: median survival time, higher = longer survival
Outline: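 T/C ratio: treated-group survival or tumor size over vehicle-control group measurement, in mice carrying transplanted tumors.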

Measured: T/C

CN(Cc1cnc2nc(N)nc(N)c2n1)c1ccc(C(=O)N[C@@H](CCC(=O)O)C(=O)O)cc1
active: dose: 1.4 mg/kg/injection, schedule: Q01DX Z (sc), vehicle: sodium bicarbonate 183 % of control | dose: 1.8 mg/kg/injection, schedule: Q01DX009 (sc), vehicle: other 161 % of control | dose: 1.8 mg/kg/injection, schedule: Q01DX009 (sc), vehicle: sodium bicarbonate 174 % of control and 177 % of control | dose: 1.8 mg/kg/injection, schedule: Q01DX Z (ip), vehicle: other 175 % of control | dose: 2.0 mg/kg/injection, schedule: Q01DX Z (sc), vehicle: other 175 % of control and 177 % of control and 183 % of control | dose: 2.08 mg/kg/injection, schedule: Q01DX Z (sc), vehicle: other 170 % of control | dose: 2.1 mg/kg/injection, schedule: Q01DX Z (oral), vehicle: other 163 % of control | dose: 2.1 mg/kg/injection, schedule: Q01DX Z (sc), vehicle: other 168 % of control | dose: 2.33 mg/kg/injection, schedule: Q01DX Z (sc), vehicle: sodium bicarbonate 155 % of control | dose: 2.5 mg/kg/injection, schedule: Q01DX Z (sc), vehicle: other 155 % of control | dose: 3.0 mg/kg/injection, schedule: Q01DX009 (ip), vehicle: saline with Tween-80 173 % of control | dose: 3.0 mg/kg/injection, schedule: Q01DX009 (sc), vehicle: other 179 % of control | dose: 3.0 mg/kg/injection, schedule: Q01DX009 (sc), vehicle: sodium bicarbonate 183 % of control | dose: 3.0 mg/kg/injection, schedule: Q01DX Z (ip), vehicle: other 150 % of control | dose: 3.0 mg/kg/injection, schedule: Q01DX Z (iv), vehicle: other 155 % of control | dose: 3.0 mg/kg/injection, schedule: Q01DX Z (oral), vehicle: other 170 % of control | dose: 3.25 mg/kg/injection, schedule: Q01DX Z (sc), vehicle: other 158 % of control | dose: 3.47 mg/kg/injection, schedule: Q01DX Z (sc), vehicle: other 150 % of control | dose: 3.5 mg/kg/injection, schedule: Q01DX Z (sc), vehicle: other 163 % of control | dose: 4.0 mg/kg/injection, schedule: Q01DX009 (ip), vehicle: saline with Tween-80 168 % of control | dose: 4.0 mg/kg/injection, schedule: Q01DX009 (ip), vehicle: saline 184 % of control | dose: 4.0 mg/kg/injection, schedule: Q01DX Z (sc), vehicle: other 150 % of control and 155 % of control | dose: 8.33 mg/kg/injection, schedule: Q01DX Z (oral), vehicle: other 150 % of control | dose: 65.0 mg/kg/injection, schedule: Q07DX Z (sc), vehicle: other 150 % of control | dose: 400.0 mg/kg/injection, schedule: Q01DX009 (ip), vehicle: sodium bicarbonate 158 % of control
inactive: dose: 1.8 mg/kg/injection, schedule: Q## X Z (sc), vehicle: other 111 % of control | dose: 3.0 mg/kg/injection, schedule: Q01DX Z (ip), vehicle: sodium bicarbonate 105 % of control | dose: 3.0 mg/kg/injection, schedule: Q01DX Z (ip), vehicle: water 120 % of control | dose: 3.0 mg/kg/injection, schedule: Q## X Z (sc), vehicle: other 111 % of control | dose: 3.5 mg/kg/injection, schedule: Q03DX Z (oral), vehicle: other 100 % of control | dose: 3.5 mg/kg/injection, schedule: Q#A X Z (oral), vehicle: other 109 % of control | dose: 5.0 mg/kg/injection, schedule: Q01DX009 (sc), vehicle: sodium bicarbonate 116 % of control and 120 % of control | dose: 5.0 mg/kg/injection, schedule: Q01DX017 (sc), vehicle: other 122 % of control | dose: 5.0 mg/kg/injection, schedule: Q## X Z (sc), vehicle: other 111 % of control | dose: 5.83 mg/kg/injection, schedule: Q01DX Z (oral), vehicle: other 118 % of control | dose: 5.83 mg/kg/injection, schedule: Q03DX Z (oral), vehicle: other 100 % of control | dose: 8.33 mg/kg/injection, schedule: Q01DX Z (iv), vehicle: other 120 % of control | dose: 8.4 mg/kg/injection, schedule: Q## X Z (sc), vehicle: other 122 % of control | dose: 9.72 mg/kg/injection, schedule: Q01DX Z (oral), vehicle: other 118 % of control | dose: 14.0 mg/kg/injection, schedule: Q## X Z (sc), vehicle: other 122 % of control | dose: 16.2 mg/kg/injection, schedule: Q03DX Z (oral), vehicle: other 113 % of control | dose: 23.0 mg/kg/injection, schedule: Q01DX001 (sc), vehicle: other 122 % of control | dose: 23.0 mg/kg/injection, schedule: Q## X Z (sc), vehicle: other 122 % of control | dose: 108.0 mg/kg/injection, schedule: Q01DX001 (sc), vehicle: other 122 % of control | dose: 108.0 mg/kg/injection, schedule: Q07DX Z (sc), vehicle: other 122 % of control | dose: 180.0 mg/kg/injection, schedule: Q01DX001 (sc), vehicle: other 116 % of control
